# Results taken from patent US9845291B2, “Estrogen receptor modulators and uses thereof” (Genentech, Inc., priority 2014, dated 2017).
# Target: estrogen receptor alpha (ESR1) (Homo sapiens, UniProt P03372)
# Assay: cell-based
# Conditions: for ER-alpha MCF7 HCS Sinf: MCF7 breast cancer cells, 4 hours, plateau of the maximal effect, DMSO and Fulvestrant define 0% and 100% changes in ESR1
# Protocol: Where more than one name is associated with a Formula I compound or intermediate, the chemical structure shall define the compound.
# Cell plates were incubated at 37° C., for 4 hours. Fixation and permeabilization were carried out using a Biotek EL406 plate washer and dispenser as follows. […] Samples were incubated 30 minutes. Well contents was aspirated and 50 ul/well of Phosphate Buffered Saline (PBS) containing 0.5% w/v bovine serum albumen, 0.5% v/v Triton X-100 (Antibody Dilution Buffer) was added to each well. Samples were incubated for 30 minutes. Well contents were aspirated and washed 3 times with 100 ul/well of PBS. Immunofluorescence staining of estrogen receptor alpha (ESR1) was carried out using a Biotek EL406 plate washer and dispenser as follows. […] Samples were incubated for 2 hours at room temperature. Samples were washed 4 times with 100 ul/well of PBS. […] Samples were incubated for 2 hours at room temperature. Samples were washed 3 times with 100 ul/well of PBS using a Biotek EL406. Quantitative fluorescence imaging of ESR1 was carried out using a Cellomics Arrayscan V (Thermo). […] Channel 1 (DNA stain) was used to define the nuclear region (Circ). […] Data analysis was carried out using Genedata Screener Software, with DMSO and 5 nM Fulvestrant treated samples being used to define the 0% and 100% changes in ESR1. The “Robust Fit” method was used to define the inflexion point of curve (EC50) and the plateau of the maximal effect (Sin f).
# estrogen receptor alpha (ESR1), sequence (P03372 whole entry): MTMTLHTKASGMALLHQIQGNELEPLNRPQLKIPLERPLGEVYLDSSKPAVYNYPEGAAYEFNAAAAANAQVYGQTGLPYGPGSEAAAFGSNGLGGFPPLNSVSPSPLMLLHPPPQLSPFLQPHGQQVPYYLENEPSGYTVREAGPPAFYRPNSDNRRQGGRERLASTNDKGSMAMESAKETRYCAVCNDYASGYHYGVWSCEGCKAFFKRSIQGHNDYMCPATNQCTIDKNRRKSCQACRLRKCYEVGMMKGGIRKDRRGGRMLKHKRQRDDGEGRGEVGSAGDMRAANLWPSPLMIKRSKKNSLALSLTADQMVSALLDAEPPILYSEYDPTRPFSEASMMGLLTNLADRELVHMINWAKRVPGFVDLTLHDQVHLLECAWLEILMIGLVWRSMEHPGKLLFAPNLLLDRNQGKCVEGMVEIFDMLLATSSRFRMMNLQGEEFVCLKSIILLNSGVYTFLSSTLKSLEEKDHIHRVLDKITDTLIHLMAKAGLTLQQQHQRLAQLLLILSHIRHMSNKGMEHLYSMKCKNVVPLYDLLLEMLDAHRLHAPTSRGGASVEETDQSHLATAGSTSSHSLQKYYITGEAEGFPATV
Compound,EC50 [nM],ER-alpha MCF7 HCS Sinf [%]
"C[C@@H](COc1ccc([C@@H]2Oc3ccc(O)cc3S[C@@H]2c2ccc(O)cc2)cc1)N1CC[C@@H](CF)C1 (mixture of isomers) [Example 30, 2-(4-((S)-2-((R)-3-(Fluoromethyl)pyrrolidin-1-yl)propoxy)phenyl)-3-(4-hydroxyphenyl)-2,3-dihydrobenzo[b][1,4]oxathiin-6-ol]",1.1,−99
"Oc1ccc([C@H]2Sc3cc(O)ccc3O[C@H]2c2ccc(OCCN3CC[C@@H](CF)C3)cc2)cc1 (racemic) [Example 28, 2-(4-(2-((R)-3-(Fluoromethyl)pyrrolidin-1-yl)ethoxy)phenyl)-3-(4-hydroxyphenyl)-2,3-dihydrobenzo[b][1,4]oxathiin-6-ol]",1,−97
"Oc1ccc([C@H]2Sc3cc(O)ccc3O[C@H]2c2ccc(OCCN3CC(CF)C3)cc2)cc1 (racemic) [Example 29, 2-(4-(2-(3-(Fluoromethyl)azetidin-1-yl)ethoxy)phenyl)-3-(4-hydroxyphenyl)-2,3-dihydrobenzo[b][1,4]oxathiin-6-ol]",0.55,−101
"Oc1cccc([C@H]2Sc3cc(O)ccc3O[C@H]2c2ccc(OCCN3CC(CF)C3)cc2)c1 (racemic) [Example 31, 2-(4-(2-(3-(Fluoromethyl)azetidin-1-yl)ethoxy)phenyl)-3-(3-hydroxyphenyl)-2,3-dihydrobenzo[b][1,4]oxathiin-6-ol]",1.1,−97
"Oc1ccc2c(c1)CC[C@H](c1ccccc1)[C@@H]2c1ccc(OCCN2CC(CF)C2)cc1 (racemic) [Example 34, cis-5-(4-(2-(3-(Fluoromethyl)azetidin-1-yl)ethoxy)phenyl)-6-phenyl-5,6,7,8-tetrahydronaphthalen-2-ol]",0.016,−99.3
"Cc1c(-c2ccc(O)cc2)n(Cc2ccc(OCCN3CC(CF)C3)cc2)c2ccc(O)cc12 [Example 1, 1-(4-(2-(3-(Fluoromethyl)azetidin-1-yl)ethoxy)benzyl)-2-(4-hydroxyphenyl)-3-methyl-1H-indol-5-ol]",0.46,−95
"Cc1c(-c2ccc(O)cc2)n(Cc2ccc(OC[C@H](C)N3CC[C@@H](CF)C3)cc2)c2ccc(O)cc12 [Example 2, 1-(4-((S)-2-((R)-3-(Fluoromethyl)pyrrolidin-1-yl)propoxy)benzyl)-2-(4-hydroxyphenyl)-3-methyl-1H-indol-5-ol]",1.6,−93
"Cc1c(-c2ccc(F)cc2)n(Cc2ccc(OCCN3CC(CF)C3)cc2)c2ccc(O)cc12 [Example 3, 1-(4-(2-(3-(Fluoromethyl)azetidin-1-yl)ethoxy)benzyl)-2-(4-fluorophenyl)-3-methyl-1H-indol-5-ol]",5.5,−92
"Cc1c(-c2ccccc2)n(Cc2ccc(OCCN3CC(CF)C3)cc2)c2ccccc12 [Example 4, 1-(4-(2-(3-(Fluoromethyl)azetidin-1-yl)ethoxy)benzyl)-3-methyl-2-phenyl-1H-indole]",200,−81
"Cc1c(-c2ccc(O)cc2)n(Cc2ccc(OCCN3CC(CF)C3)cc2)c2ccccc12 [Example 5, 4-(1-(4-(2-(3-(Fluoromethyl)azetidin-1-yl)ethoxy)benzyl)-3-methyl-1H-indol-2-yl)phenol]",65,−93
"Cn1c(-c2ccc(O)cc2)c(C(=O)c2ccc(OCCN3CC(CF)C3)cc2)c2ccc(O)cc21 [Example 6, (4-(2-(3-(Fluoromethyl)azetidin-1-yl)ethoxy)phenyl)(6-hydroxy-2-(4-hydroxyphenyl)-1-methyl-1H-indol-3-yl)methanone]",550,−50
"CS(=O)(=O)c1ccc(-c2ccc3cc(O)ccc3c2Oc2ccc(OCCN3CC(CF)C3)cc2)cc1 [Example 7, 5-(4-(2-(3-(Fluoromethyl)azetidin-1-yl)ethoxy)phenoxy)-6-(4-(methylsulfonyl)phenyl)naphthalen-2-ol]",1.6,−95
"CS(=O)(=O)c1ccc(-c2ccc3cc(O)ccc3c2Oc2ccc(OCCN3CC[C@@H](CF)C3)cc2)cc1 [Example 8, (R)-5-(4-(2-(3-(Fluoromethyl)pyrrolidin-1-yl)ethoxy)phenoxy)-6-(4-(methylsulfonyl)phenyl)naphthalen-2-ol]",0.27,−95
"O=C(c1ccc(OCCN2CC(CF)C2)cc1)c1c(-c2ccc(O)cc2)sc2cc(O)ccc12 [Example 9, (4-(2-(3-(fluoromethyl)azetidin-1-yl)ethoxy)phenyl)(6-hydroxy-2-(4-hydroxyphenyl)benzo[b]thiophen-3-yl)methanone]",1.1,−97
"O=C(c1ccc(OCCN2CC(CF)C2)cc1)c1c(-c2ccc(F)cc2)sc2cc(O)ccc12 [Example 10, (4-(2-(3-(fluoromethyl)azetidin-1-yl)ethoxy)phenyl)(2-(4-fluorophenyl)-6-hydroxyhenzo[b]thiophen-3-yl)methanone]",0.45,−96
"Oc1ccc(-c2sc3cc(O)ccc3c2Oc2ccc(OCCN3CC(CF)C3)cc2)cc1 [Example 11, 3-(4-(2-(3-(Fluoromethyl)azetidin-1-yl)ethoxy)phenoxy)-2-(4-hydroxyphenyl)benzo[b]thiophen-6-ol]",0.13,−94
"COc1ccc(-c2sc3cc(O)ccc3c2Oc2ccc(OC[C@H](C)N3CC[C@@H](CF)C3)cc2)cc1 [Example 12, 3-(4-((S)-2-((R)-3-(Fluoromethyl)pyrrolidin-1-yl)propoxy)phenoxy)-2-(4-methoxyphenyl)benzo [6]thiophen-6-ol]",310,−50
"CCN(Cc1ccc(OCCN2CC(CF)C2)cc1)c1cc(OC)ccc1C1CCc2cc(O)ccc2C1 (stereo not shown) [Example 13, 6-(2-(Ethyl(4-(2-(3-(fluoromethyl)azetidin-1-yl)ethoxy)benzyl)amino)-4-methoxyphenyl)-5,6,7,8-tetrahydronaphthalen-2-ol]",7.5,−55
"Oc1ccc(-c2onc(-c3ccccc3Cl)c2-c2ccc(OCCN3CC(CF)C3)cc2)cc1 [Example 14, 4-(3-(2-Chlorophenyl)-4-(4-(2-(3-(fluoromethyl)azetidin-1-yl)ethoxy)phenyl)isoxazol-5-yl)phenol]",0.21,−99
"Oc1ccc(-c2onc(-c3ccccc3Cl)c2-c2ccc(OCCN3CC[C@@H](CF)C3)cc2)cc1 [Example 15, (R)-4-(3-(2-Chlorophenyl)-4-(4-(2-(3-(fluoromethyl)pyrrolidin-1-yl)ethoxy)phenyl)isoxazol-5-yl)phenol]",2.3,−84
"Oc1ccc(-c2snc(-c3ccccc3Cl)c2-c2ccc(OCCN3CC(CF)C3)c(F)c2)cc1 [Example 16, 4-(3-(2-Chloro-phenyl)-4-{3-fluoro-4-[2-(3-fluoromethyl-azetidin-1-yl)-ethoxy]-phenyl}-isothiazol-5-yl)-phenol]",–,−99.2
"O=C(c1ccc(OCCN2CC(CF)C2)c(F)c1)c1c(-c2ccccc2Cl)noc1-c1ccc(O)cc1 [Example 17, [3-(2-Chloro-phenyl)-5-(4-hydroxy-phenyl)-isoxazol-4-yl]-{3-fluoro-4-[2-(3-fluoromethyl-azetidin-1-yl)-ethoxy]-phenyl}-methanone]",0.3,−102
"Oc1ccc(C(=C2CCCCC2)c2ccc(OCCN3CC(CF)C3)cc2)cc1 [Example 18, 4-(Cyclohexylidene-{4-[2-(3-fluoromethyl-azetidin-1-yl)-ethoxy]-phenyl}-methyl)-phenol]",12,−89
"CC/C(=C(\c1ccccc1)c1ccc(OCCN2CC[C@@H](CF)C2)cc1)c1ccccc1 [Example 19, (R,Z)-1-(2-(4-(1,2-Diphenylbut-1-en-yl)phenoxy)ethyl)-3-(fluoromethyl)pyrrolidine]",15,−75
"CC/C(=C(\c1ccccc1)c1ccc(OC[C@H](C)N2CC[C@@H](CF)C2)cc1)c1ccccc1 [Example 20, (R)-1-((S)-1-(4-((Z)-1,2-Diphenylbut-1-en-1-yl)phenoxy)propan-2-yl)-3-(fluoromethyl)pyrrolidine]",24,−73
"CC/C(=C(\c1ccccc1)c1ccc(OCCN2CC(CF)C2)cc1)c1ccccc1 [Example 21, (Z)-1-(2-(4-(1,2-Diphenylbut-1-en-1-yl)phenoxy)ethyl)-3-(fluoromethyl)azetidine]",11,−97
"CC/C(=C(\c1ccc(O)cc1)c1ccc(OCCN2CC[C@@H](CF)C2)cc1)c1ccccc1 [Example 22, (R,Z)-4-(1-(4-(2-(3-(Fluoromethyl)pyrrolidin-1-yl)ethoxy)phenyl)-2-phenylbut-1-en-yl)phenol]",0.58,−83
CC/C(=C(\c1ccc(O)cc1)c1ccc(OCCN2CC(CF)C2)cc1)c1ccccc1 [Example 23],0.59,−95
